From US5599548A, “Skin care compositions containing fatty acid amides and retinol or retinyl ester” (priority 1995, dated 1997)
Read-outs that look alike come from different tables or passages of the source.

Key:
Human keratinocytes = experiment: 3H-Thymidine incorporation (keratinocyte proliferation); type: cell-based; conditions: for activity at 0.25 µM / activity at 0.025 µM / activity at 0.0025 µM: Homo sapiens, Keratinocyte; for activity at 0.25 µM / mean Thymidine incorp./μg protein ± s.d: 2.5 × 10^-7 M; for activity at 0.0025 µM: 2.5 × 10^-9 M; for effect on keratinocyte proliferation, in words: concentrations as in the respective Example
Method: (§1) Human keratinocytes, isolated from neonatal foreskin by trypsin treatment were grown in Dulbecco Modification Eagle (DME) Hams F12 (1:1) medium/10% fetal calf serum in the presence of irradiated 3T3 mouse fibroblasts for establishing dividing keratinocyte colonies. Cells were grown under the above condition until their second passage and kept frozen for future use. […] On day 7, when the cells were 80-90% confluent, they were trypsinized and plated in the serum-free medium for the various experiments.
The incorporation of […] by cultured keratinocytes was used as an assay of keratinocyte proliferation. Thymidine is one of four deoxynucleosides which are the monomeric units of DNA, the universal library of genetic information in the animal kingdom. Prior to cell division of a somatic cell such as a keratinocyte, the complete genome of the cell undergoing cell division is replicated. This involves large scale DNA synthesis by the cell and enables both daughter cells to receive identical copies of the genetic material. When ^3 H-thymidine is included in the culture media of keratinocytes which are synthesizing DNA in preparation for cell division then the labelled nucleoside is incorporated into the newly synthesized DNA. The extent of incorporation of ^3 H-thymidine into a population of cells is proportional to the rate of DNA synthesis by this population of cells and therefore an indication of their cellular proliferation.
Keratinocytes (that were cultured as described above) were plated in 24 well plates at a density of 40,000 cells per well in 1 ml media. After incubation for four days or until the cells were 60-70% confluent, the media was changed. Test compounds were added (in triplicate) to the wells 24 hours after the media change, and four hours later 1μCi^3 H-Thymidine in 50 μl media was added per well. Cells were incubated for a further 24 hours. Media was removed from the cells, 10% ice cold trichloroacetic acid (TCA) added and plates were incubated on ice for 30 minutes. Cells were washed five times with 5% TCA and allowed to dissolve in 500 μl 0.1M NaOH for at least one hour (usually overnight). The preparations were neutralized with 0.1M HCl; 50 μl of the cell preparation was used to determine total protein content. Disintegrations per minute (DPM) from ^3 H labelling of DNA was determined by liquid scintillation counting of […] of the cell preparation. Thymidine incorporation results were expressed as DPM/μg protein.

[1] = test system: TGase I (keratinocyte transglutaminase level); experiment: Transglutaminase (TGase I) ELISA assay (keratinocyte differentiation); type: cell-based, human; conditions: for effect on keratinocyte TG1 levels / differentiation, in words: concentrations as in the respective Example
Method: as §1
During the process of terminal differentiation in the epidermis, a 15 nm thick layer of protein, known as the cornified envelope (CE) is formed on the inner surface of the cell periphery. The CE is composed of numerous distinct proteins which have been cross-linked together by the formation of N^ε -(γ-glutamyl) lysine isodipeptide bonds catalyzed by the action of at least two different transglutaminases (TGases) expressed in the epidermis. TGase I is expressed in abundance in the differentiated layers of the epidermis, especially the granular layer, but is absent in the undifferentiated basal epidermis. Thus TGase I is a useful marker of epidermal keratinocyte differentiation with high TGase I levels indicating a more differentiated state. An ELISA based TGase I assay, using a TGase I antibody, was used to assess the state of differentiation of the cultured keratinocytes in the examples that follow.
Keratinocytes (cultured as described above) were plated in 96 well plates at a density of 3,000 cells per well in 200 μl media. After incubation for four days the media was changed to media containing test compounds (six replicates per test). The cells were cultured for a further 72 hours after which time the media was aspirated and the plates stored at -70° C. Plates were removed from the freezer, and the cells washed with PBS. 100 μl sterile water was added and the cells were freeze fractured by freezing at -70° C. then thawing. The cells were incubated for one hour at room temperature (R/T) with PBS/3% BSA (wash buffer, bovine serum albumin), then rinsed with a fresh aliquot of wash buffer. Cells were incubated with 50 μl of primary antibodies monoclonal anti-human transglutaminase (IgG) obtained from Amersham (mouse) diluted 1:300 in wash buffer for one hour, 37° C. then rinsed two times with wash buffer. Cells were then incubated with 50 μl of secondary antibody (Feb fragment, peroxidase conjugated anti-mouse IgG obtaining from Amersham) diluted 1:200 in wash buffer for one hour at 37° C., then rinsed two times with wash buffer. Cells were incubated with substrate solution (4 mg o-phenylene diamine and 3.3 μl 30% H2 O2 in 10 ml 0.1M citrate buffer pH 5.0) for five minutes, R/T, in darkness (under aluminum foil). The reaction was stopped by the addition of 50 μl 4N H2 SO4. The absorbance of samples was read at 492 nm in the plate reader. Out of the six replicates, four were treated with both antibodies, two were treated only with the secondary antibody (i.e., to determine background binding of enzyme conjugated Ab). TGase levels were determined by subtracting background from the readings from each treatment and determining mean ±s.d. for the replicates exposed to both Ab.

[2] = 24 h, Table 7A, 24 h, n = 9, read-out: mean Thymidine incorp/μg protein ± s.d
[3] = 24 h, Table 7A, 24 h, n = 9, read-out: thymidine incorporation, % control

CC1=C(/C=C/C(C)=C/C=C/C(C)=C/CO)C(C)(C)CCC1 [ROH, retinol]
activity at 0.25 µM (Human keratinocytes; 24 h, Table 1A, first RA/ROH pair, 24 h, n = 3, read-out: thymidine incorporation, % control): 106%
activity at 0.25 µM (Human keratinocytes; 24 h, Table 1A, second RA/ROH pair, 24 h, n = 3, read-out: thymidine incorporation, % control): 97%
activity at 0.25 µM (Human keratinocytes; 24 h, Table 1A, third RA/ROH pair, 24 h, n = 3, read-out: thymidine incorporation, % control): 94%
activity at 0.025 µM (Human keratinocytes; 24 h, Table 2A, RA, ROH 2.5 × 10^-8 M, linoleoyl-DEA 10^-9 M, alone or combined, 24 h, n = 9, read-out: thymidine incorporation, % control): 102%
activity at 0.025 µM (Human keratinocytes; 24 h, Table 2A, RA, ROH 2.5 × 10^-8 M, linoleoyl-DEA 10^-9 M, alone or combined, 24 h, normalized to ethanol control, n = 9, read-out: mean Thymidine incorp./μg protein ± s.d): 102 ± 15.2%
activity at 0.025 µM (Human keratinocytes; 24 h, Table 4C, RA, retinol 2.5 × 10^-8 M, palmitoyl-MEA 10^-6 M, alone or combined, n = 3, read-out: thymidine incorporation, % control): 101%
activity at 0.025 µM (Human keratinocytes; 24 h, Table 4D, RA, ROH 2.5 × 10^-8 M, linoleoyl-MEA 10^-9 M, alone or combined, 24 h, n = 3, read-out: thymidine incorporation, % control): 106%
activity at 0.025 µM (Human keratinocytes; 24 h, Table 4D, RA, ROH 2.5 × 10^-8 M, linoleoyl-MEA 10^-9 M, alone or combined, 24 h, normalized to ethanol control, n = 3, read-out: mean Thymidine incorp./μg protein ± s.d): 106 ± 27%
activity at 0.25 µM (Human keratinocytes; [2]): 102 ± 16.5%
activity at 0.25 µM (Human keratinocytes; [3]): 102%
activity at 0.025 µM (Human keratinocytes; 24 h, Table 7A, 2.5 × 10^-8 M, 24 h, n = 9, read-out: mean Thymidine incorp/μg protein ± s.d): 101 ± 15.2%
activity at 0.025 µM (Human keratinocytes; 24 h, Table 7A, 2.5 × 10^-8 M, 24 h, n = 9, read-out: thymidine incorporation, % control): 101%
activity at 0.0025 µM (Human keratinocytes; [2]): 99.5 ± 12.3%
activity at 0.0025 µM (Human keratinocytes; [3]): 100%
activity at 0.025 µM (Human keratinocytes; Table 4C, RA, retinol 2.5 × 10^-8 M, palmitoyl-MEA 10^-6 M, alone or combined, control = 1.000, n = 3, read-out: mean Thymidine incorp./μg protein ± s.d): 101 ± 8.8%
mean Thymidine incorp./μg protein ± s.d (Human keratinocytes; Table 1A, first RA/ROH pair, 24 h, n = 3): 2218 ± 73 DPM/μg protein
mean Thymidine incorp./μg protein ± s.d (Human keratinocytes; Table 1A, second RA/ROH pair, 24 h, n = 3): 2034 ± 46 DPM/μg protein
mean Thymidine incorp./μg protein ± s.d (Human keratinocytes; Table 1A, third RA/ROH pair, 24 h, n = 3): 1977 ± 19 DPM/μg protein
effect on keratinocyte proliferation, in words (Human keratinocytes): minor, non-significant stimulatory effect on keratinocyte proliferation
effect on keratinocyte proliferation, in words (Human keratinocytes; listed as Retinol): completely ineffective at increasing keratinocyte proliferation
effect on keratinocyte proliferation, in words (Human keratinocytes; listed as retinol): Neither 10^-8 M palmitoyl-MEA nor 2.5×10^-8 M retinol had an effect on keratinocyte proliferation
activity at 0.25 µM ([1]; Homo sapiens, Keratinocyte, 72 h, Table 1B, 2.5 × 10^-7 M, 72 h, n = 3, read-out: Transglutaminase level, % control): 67%
activity at 0.025 µM ([1]; Homo sapiens, Keratinocyte, 72 h, Table 1B, 2.5 × 10^-8 M, 72 h, n = 3, read-out: Transglutaminase level, % control): 86%
activity at 0.0025 µM ([1]; Homo sapiens, Keratinocyte, 72 h, Table 1B, 2.5 × 10^-9 M, 72 h, n = 3, read-out: Transglutaminase level, % control): 97%
activity at 0.25 µM ([1]; Homo sapiens, Keratinocyte, 72 h, Table 2B, RA, ROH 2.5 × 10^-7 M, linoleoyl-DEA 10^-6 M, alone or combined, 72 h, n = 9, read-out: TGase (TG1) level, % control): 59%
activity at 0.25 µM ([1]; Homo sapiens, Keratinocyte, 72 h, Table 6A, RA, ROH 2.5 × 10^-7 M, formamide 10^-7 M, alone or combined, 72 h, n = 3, read-out: TGase (TG1) level, % control): 71%
activity at 0.25 µM ([1]; Homo sapiens, Keratinocyte, 72 h, Table 6B, RA, ROH 2.5 × 10^-7 M, acetamide 10^-7 M, alone or combined, 72 h, n = 3, read-out: TGase (TG1) level, % control): 65%
activity at 0.25 µM ([1]; Homo sapiens, Keratinocyte, 72 h, Table 6C, RA, ROH 2.5 × 10^-7 M, pentanoyl-DEA 10^-7 M, alone or combined, 72 h, n = 3, read-out: TGase (TG1) level, % control): 67%
activity at 0.25 µM ([1]; Homo sapiens, Keratinocyte, Table 4A, RA, retinol 2.5 × 10^-7 M, cocoyl-DEA 10^-7 M, alone or combined, n = 3, read-out: TGase (TG1) level, % control): 82%
activity at 0.025 µM ([1]; Homo sapiens, Keratinocyte, Table 4B, RA, retinol 2.5 × 10^-8 M, cocoyl-MEA 10^-8 M, alone or combined, n = 3, read-out: TGase (TG1) level, % control): 44%
activity at 0.25 µM ([1]; Homo sapiens, Keratinocyte, Table 5A, RA, retinol 2.5 × 10^-7 M, linoleic acid 10^-6 M, alone or combined, n = 3, read-out: TGase (TG1) level, % control): 39%
activity at 0.025 µM ([1]; Homo sapiens, Keratinocyte, Table 5B, RA, retinol 2.5 × 10^-8 M, methyl linoleate 10^-8 M, alone or combined, n = 3, read-out: TGase (TG1) level, % control): 69%
mean Transglutaminase ELISA level ± s.d ([1]; Table 1B, 2.5 × 10^-7 M, 72 h, n = 3): 0.290 ± 0.043
mean Transglutaminase ELISA level ± s.d ([1]; Table 1B, 2.5 × 10^-8 M, 72 h, n = 3): 0.371 ± 0.054
mean Transglutaminase ELISA level ± s.d ([1]; Table 1B, 2.5 × 10^-9 M, 72 h, n = 3): 0.416 ± 0.035
mean TGase ± s.d ([1]; Table 2B, RA, ROH 2.5 × 10^-7 M, linoleoyl-DEA 10^-6 M, alone or combined, 72 h, normalized to ethanol control, n = 9): 0.594 ± 0.542
mean TGase ± s.d ([1]; Table 4A, RA, retinol 2.5 × 10^-7 M, cocoyl-DEA 10^-7 M, alone or combined, n = 3): 0.145 ± 0.070
mean TGase ± s.d ([1]; Table 4B, RA, retinol 2.5 × 10^-8 M, cocoyl-MEA 10^-8 M, alone or combined, n = 3): 0.054 ± 0.013
mean TGase ± s.d ([1]; Table 5A, RA, retinol 2.5 × 10^-7 M, linoleic acid 10^-6 M, alone or combined, n = 3): 0.042 ± 0.112
mean TGase ± s.d ([1]; Table 5B, RA, retinol 2.5 × 10^-8 M, methyl linoleate 10^-8 M, alone or combined, n = 3): 0.199 ± 0.093
mean TGase level ± s.d ([1]; Table 6A (Effect on Keratinocyte TGase), RA, ROH 2.5 × 10^-7 M, formamide 10^-7 M, alone or combined, 72 h, n = 3): 0.351 ± 0.046
mean TGase level ± s.d ([1]; Table 6B (Effect on Keratinocyte TGase), RA, ROH 2.5 × 10^-7 M, acetamide 10^-7 M, alone or combined, 72 h, n = 3): 0.317 ± 0.043
mean TGase level ± s.d ([1]; Table 6C (Effect on Keratinocyte TGase), RA, ROH 2.5 × 10^-7 M, pentanoyl-DEA 10^-7 M, alone or combined, 72 h, n = 3): 0.290 ± 0.043
effect on keratinocyte TG1 levels / differentiation, in words ([1]; listed as Retinol): significantly less effective than retinoic acid at inhibiting keratinocyte differentiation
effect on keratinocyte TG1 levels / differentiation, in words ([1]; listed as retinol): decrease in transglutaminase level was dose dependent
